Assay results as given in ChEMBL document CHEMBL1649179, “Pharmacokinetics of LB80331 and LB80317 following oral administration of LB80380, a new antiviral agent for chronic hepatitis B (CHB), in healthy adult subjects, CHB patients, and mice” (Antimicrob Agents Chemother, 2009).

Key:
[1] = tested on: Hepatitis B virus; test: Antiviral activity against hepatitis B virus infected in human assessed as log reduction in viral titer per ml of serum at 30 mg, po qd for 4 weeks; assay type: functional
[2] = tested on: Homo sapiens; test: Toxicity in chronic hepatitis B virus infected patient assessed as serum ALT level at 120 mg, po qd for 4 weeks by LC-MS analysis; assay type: organism-based; settings: in vivo, 672 h
[3] = tested on: Homo sapiens; test: Toxicity in chronic hepatitis B virus infected patient assessed as serum ALT level at 60 mg, po qd for 4 weeks by LC-MS analysis; assay type: organism-based; settings: in vivo, 672 h
[4] = tested on: Homo sapiens; test: Toxicity in chronic hepatitis B virus infected patient assessed as serum ALT level at 30 mg, po qd for 4 weeks by LC-MS analysis; assay type: organism-based; settings: in vivo, 672 h
[5] = tested on: Homo sapiens; test: Toxicity in chronic hepatitis B virus infected patient assessed as serum ALT level at 240 mg, po qd for 4 weeks by LC-MS analysis; assay type: organism-based; settings: in vivo, 672 h
[6] = tested on: Hepatitis B virus; test: Antiviral activity against hepatitis B virus infected in human assessed as log reduction in viral titer per ml of serum at 240 mg, po qd for 4 weeks; assay type: functional

In the case of CC(C)(C)C(=O)OCOP(=O)(COC1(Cn2cnc3cnc(N)nc32)CC1)OCOC(=O)C(C)(C)C [LB80380], the FC [1] is reported as 3.02, the Activity [2] is reported as 34.5 U/L and the Activity [3] is reported as 68.7 U/L. The Activity [4] was 79.5 U/L, the Activity [5] was 27 U/L and the FC [6] was 3.8.
